System: 817829-284-R-J1-PDC complex spheroids, viability
Assay: Anticancer human tumor 817829-284-R-J1-PDC patient-derived colon adenocarcinoma cell line growth inhibition [GQUAD]
Conditions: for IC50: curve of first compound; for viability, T/C: stronger effect = lower value
From the text: DNA G-quadruplex Stabilizer Agents in Combinations in Complex Spheroids
A high-throughput screen of multi-cell type tumor spheroids was designed to identify active combinations of DNA G-quadruplex stabilizer agents and targeted small molecules. Complex spheroids include a stromal component modeled by human endothelial cells (HUVEC) and fibroblasts modeled by human mesenchymal stem cells (MSCs). The concentration ranges selected for each drug and investigational agent were based upon clinically achievable concentrations if the clinical Cmax of the agent was known.
Compounds. The drugs and investigational agents: pidnarulex (CX-5461; NSC782164), APTO-253 (NSC789042), BRACO-19 (NSC847499), peposertib (NSC802822), ceralasertib (NSC780249), elimusertib (NSC800525), camonsertib (NSC841442), AZD-1390 (NSC803789), olaparib (NSC753686), talazoparib (NSC767125), ART-558 (NSC835418), sotorasib (NSC818433), MRTX-1133 (NSC836407), SN-38 (NSC673596), topotecan (NSC609699), etoposide (NSC141540), doxorubicin (NSC123127), gemcitabine (NSC613327), 5-fluorouracil (NSC19893), paclitaxel (NSC125973), vemurafenib (NSC761431), panobinostat (NSC761190), R-306465 (JNJ-16241199; NSC773264), adavosertib (NSC754352), TP-3654 (NSC805149), carboplatin (NSC241240), KSQ-4279 (NSC840948), and staurosporine (NSC755774) were obtained from the National Cancer Institute (NCI) Developmental Therapeutics Program Chemical Repository (34). The FDA-approved anticancer drug set is available from the NCI Developmental Therapeutics Program. […] The stock solutions were prepared in dimethyl sulfoxide (DMSO, Sigma-Aldrich, St. Louis, MO, cat. D2650) at 800-fold the tested concentration and stored at -70 degrees C prior to their use. All drugs and investigational agents were tested over a range starting from a high concentration at or near the clinical Cmax and decreasing in half-log increments. If the clinical Cmax for an agent had not been determined, the highest concentration tested was 10 microM.
2.3 Cell Culture. All cells were maintained in an incubator at 37 degrees C and 5% CO2 with 95% humidity. The PDC lines were cultured according to standard operating procedures established by the NCI PDMR. All PDCs were thawed and cultured in Matrigel-coated flasks prepared with a working solution of 1X Ham's F-12 nutrient mix, without supplementation (Invitrogen, cat. 11765054), 100 U/mL penicillin-streptomycin (Invitrogen, cat. 15140122), and 2.5% Matrigel (Corning Inc., cat. 354248) for the first three passages. The 857933-349-R-J2-PDC line was cultured in 6C/Colon 1B media, which includes advanced DMEM/F-12 (Thermo Fisher Scientific, cat. 12634028), 10 mM HEPES (Thermo Fisher Scientific, cat. 15630080), 1X GlutaMAX supplement (Thermo Fisher Scientific, cat. 35050061), 0.1 mg/mL primocin (InvivoGen, cat. ant-pm-2), 10% defined fetal bovine serum, heat inactivated (HyClone Laboratories Inc., cat. SH30070.03HI), 50% L-WRN conditioned media (ATCC, cat. CRL-3276), 1.25 mM N-Acetyl-L-cysteine (Sigma-Aldrich, cat. A9165), 10 mM nicotinamide (Sigma-Aldrich, cat. N0636), 1X B-27 supplement (Thermo Fisher Scientific, cat. 17504044), 1X N-2 supplement (Thermo Fisher Scientific, cat. 17502048), 10 microM Y-27632 dihydrochloride (Tocris Bioscience, cat. 1254), and 50 ng/mL human EGF recombinant protein (Thermo Fisher Scientific, cat. PHG0311). The 485176-168-R4-J1-PDC line was cultured in Panc media, which includes all 6C/Colon 1B media components plus 100 ng/mL human FGF-10 (Thermo Fisher Scientific, cat. 100-26), 500 nM SB-431542 (Selleckchem, cat. S1067), and gastrin (Tocris, cat. 3006).
[…]

[1] = second compound 0.0316 µM, first compound 0.0316 µM
[2] = second compound 0.0316 µM, first compound 0.316 µM
[3] = second compound 0.1 µM, first compound 0.0316 µM
[4] = second compound 0.1 µM, first compound 0.316 µM
[5] = second compound 0.316 µM, first compound 0.0316 µM
[6] = second compound 0.316 µM, first compound 0.316 µM
[7] = second compound 1 µM, first compound 0.0316 µM
[8] = second compound 1 µM, first compound 0.316 µM
[9] = second compound 3.16 µM, first compound 0.0316 µM
[10] = second compound 3.16 µM, first compound 0.316 µM
[11] = second compound 10 µM, first compound 0.0316 µM
[12] = second compound 10 µM, first compound 0.316 µM
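Also: spheroids exposed to agents for 7 days before readout.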
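For viability, T/C in this document: percent viability relative to DMSO vehicle control taken as 100%.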

## Cc1cccc(N(C)C(=O)C2C(O)CCN2c2nc(C)cc(C(F)(F)F)c2C#N)c1 (centres undefined) + CN(C)c1ccc(Nc2c3ccc(NC(=O)CCN4CCCC4)cc3nc3cc(NC(=O)CCN4CCCC4)ccc23)cc1
Second compound 0.0316 µM
  IC50: > 10 µM
Second compound 0.1 µM
  IC50: > 10 µM
Second compound 0.316 µM
  IC50: > 10 µM
Second compound 1 µM
  IC50: > 10 µM
Second compound 3.16 µM
  IC50: > 10 µM
Second compound 10 µM
  IC50: 4.03 µM
[1]
  viability, T/C: 101%
Second compound 0.0316 µM, first compound 0.1 µM
  viability, T/C: 102%
[2]
  viability, T/C: 92.5%
Second compound 0.0316 µM, first compound 1 µM
  viability, T/C: 90%
Second compound 0.0316 µM, first compound 3.16 µM
  viability, T/C: 92.8%
Second compound 0.0316 µM, first compound 10 µM
  viability, T/C: 85.4%
[3]
  viability, T/C: 89.3%
Second compound 0.1 µM, first compound 0.1 µM
  viability, T/C: 109%
[4]
  viability, T/C: 90.1%
Second compound 0.1 µM, first compound 1 µM
  viability, T/C: 112%
Second compound 0.1 µM, first compound 3.16 µM
  viability, T/C: 93.3%
Second compound 0.1 µM, first compound 10 µM
  viability, T/C: 79.9%
[5]
  viability, T/C: 99.3%
Second compound 0.316 µM, first compound 0.1 µM
  viability, T/C: 96.8%
[6]
  viability, T/C: 90.6%
Second compound 0.316 µM, first compound 1 µM
  viability, T/C: 93.1%
Second compound 0.316 µM, first compound 3.16 µM
  viability, T/C: 99.4%
Second compound 0.316 µM, first compound 10 µM
  viability, T/C: 90.8%
[7]
  viability, T/C: 95.5%
Second compound 1 µM, first compound 0.1 µM
  viability, T/C: 88.2%
[8]
  viability, T/C: 90.5%
Second compound 1 µM, first compound 1 µM
  viability, T/C: 83.7%
Second compound 1 µM, first compound 3.16 µM
  viability, T/C: 94%
Second compound 1 µM, first compound 10 µM
  viability, T/C: 81%
[9]
  viability, T/C: 99.6%
Second compound 3.16 µM, first compound 0.1 µM
  viability, T/C: 99.3%
[10]
  viability, T/C: 94.3%
Second compound 3.16 µM, first compound 1 µM
  viability, T/C: 91.8%
Second compound 3.16 µM, first compound 3.16 µM
  viability, T/C: 111%
Second compound 3.16 µM, first compound 10 µM
  viability, T/C: 82.1%
[11]
  viability, T/C: 97.7%
Second compound 10 µM, first compound 0.1 µM
  viability, T/C: 88.7%
[12]
  viability, T/C: 85.7%
Second compound 10 µM, first compound 1 µM
  viability, T/C: 69.4%
Second compound 10 µM, first compound 3.16 µM
  viability, T/C: 52.2%
Second compound 10 µM, first compound 10 µM
  viability, T/C: 40.2%

## Cn1ncnc1[C@H]1c2n[nH]c(=O)c3cc(F)cc(c23)N[C@@H]1c1ccc(F)cc1 + CN(C)c1ccc(Nc2c3ccc(NC(=O)CCN4CCCC4)cc3nc3cc(NC(=O)CCN4CCCC4)ccc23)cc1
Second compound 0.0316 µM
  IC50: > 0.316 µM
Second compound 0.1 µM
  IC50: > 0.316 µM
Second compound 0.316 µM
  IC50: > 0.316 µM
Second compound 1 µM
  IC50: > 0.316 µM
Second compound 3.16 µM
  IC50: > 0.316 µM
Second compound 10 µM
  IC50: > 0.316 µM
Second compound 0.0316 µM, first compound 0.000999 µM
  viability, T/C: 91.3%
Second compound 0.0316 µM, first compound 0.00316 µM
  viability, T/C: 112%
Second compound 0.0316 µM, first compound 0.00999 µM
  viability, T/C: 112%
[1]
  viability, T/C: 95%
Second compound 0.0316 µM, first compound 0.0999 µM
  viability, T/C: 85.1%
[2]
  viability, T/C: 68.9%
Second compound 0.1 µM, first compound 0.000999 µM
  viability, T/C: 95.6%
Second compound 0.1 µM, first compound 0.00316 µM
  viability, T/C: 105%
Second compound 0.1 µM, first compound 0.00999 µM
  viability, T/C: 95.4%
[3]
  viability, T/C: 94%
Second compound 0.1 µM, first compound 0.0999 µM
  viability, T/C: 86.2%
[4]
  viability, T/C: 80%
Second compound 0.316 µM, first compound 0.000999 µM
  viability, T/C: 95.8%
Second compound 0.316 µM, first compound 0.00316 µM
  viability, T/C: 104%
Second compound 0.316 µM, first compound 0.00999 µM
  viability, T/C: 95.8%
[5]
  viability, T/C: 101%
Second compound 0.316 µM, first compound 0.0999 µM
  viability, T/C: 97.7%
[6]
  viability, T/C: 78.6%
Second compound 1 µM, first compound 0.000999 µM
  viability, T/C: 90%
Second compound 1 µM, first compound 0.00316 µM
  viability, T/C: 99%
Second compound 1 µM, first compound 0.00999 µM
  viability, T/C: 99.6%
[7]
  viability, T/C: 92.6%
Second compound 1 µM, first compound 0.0999 µM
  viability, T/C: 90.4%
[8]
  viability, T/C: 71.8%
Second compound 3.16 µM, first compound 0.000999 µM
  viability, T/C: 92.2%
Second compound 3.16 µM, first compound 0.00316 µM
  viability, T/C: 99.7%
Second compound 3.16 µM, first compound 0.00999 µM
  viability, T/C: 90.6%
[9]
  viability, T/C: 89.2%
Second compound 3.16 µM, first compound 0.0999 µM
  viability, T/C: 104%
[10]
  viability, T/C: 79.9%
Second compound 10 µM, first compound 0.000999 µM
  viability, T/C: 97.2%
Second compound 10 µM, first compound 0.00316 µM
  viability, T/C: 97.3%
Second compound 10 µM, first compound 0.00999 µM
  viability, T/C: 89.6%
[11]
  viability, T/C: 81.2%
Second compound 10 µM, first compound 0.0999 µM
  viability, T/C: 79.1%
[12]
  viability, T/C: 63.4%

From PubChem BioAssay AID2060503 (Molecular Pharmacology Branch, DTP, NCI, 2025)
